{"source": "ChEMBL document CHEMBL6078631", "about": "“Covalent inhibitors meet epigenetics: New opportunities” (Eur J Med Chem, 2024)", "target": "RNA cytosine C(5)-methyltransferase NSUN2 (Homo sapiens) (UniProt Q08J23)", "sequence (Q08J23 whole entry)": "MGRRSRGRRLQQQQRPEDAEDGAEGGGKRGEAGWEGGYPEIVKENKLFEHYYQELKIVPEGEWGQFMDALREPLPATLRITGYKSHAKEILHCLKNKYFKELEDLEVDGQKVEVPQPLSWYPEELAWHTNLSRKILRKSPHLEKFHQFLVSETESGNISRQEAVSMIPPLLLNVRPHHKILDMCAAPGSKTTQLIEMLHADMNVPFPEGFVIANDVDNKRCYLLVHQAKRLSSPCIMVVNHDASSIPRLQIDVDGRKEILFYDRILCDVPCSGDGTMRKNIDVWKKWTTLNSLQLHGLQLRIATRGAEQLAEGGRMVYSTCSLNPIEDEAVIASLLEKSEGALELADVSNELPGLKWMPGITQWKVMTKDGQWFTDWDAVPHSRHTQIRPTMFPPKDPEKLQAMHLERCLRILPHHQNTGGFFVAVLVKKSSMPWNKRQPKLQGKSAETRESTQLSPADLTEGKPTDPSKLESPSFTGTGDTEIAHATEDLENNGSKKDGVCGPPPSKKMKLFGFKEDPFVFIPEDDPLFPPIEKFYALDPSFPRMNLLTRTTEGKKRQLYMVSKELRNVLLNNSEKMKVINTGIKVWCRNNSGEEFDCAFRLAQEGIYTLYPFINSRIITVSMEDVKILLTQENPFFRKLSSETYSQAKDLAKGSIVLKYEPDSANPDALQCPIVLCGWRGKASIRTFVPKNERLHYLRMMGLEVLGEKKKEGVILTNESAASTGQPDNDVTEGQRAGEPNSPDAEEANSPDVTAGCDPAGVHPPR", "assay": "Binding affinity to human NSUN2 assessed as ratio of kinact/Ki", "data": [{"smiles": "C=CC(=O)N1C[C@H](c2ccc(Br)cc2)[C@@H]1C(=O)Nc1cccc2cccnc12", "values": [{"measurement": "kinact/Ki", "result": 67, "unit": "M⁻¹ s⁻¹"}]}]}
